Test results taken from ChEMBL document CHEMBL1122538, “Functional group contributions to drug-receptor interactions” (J Med Chem, 1984).

Assay: Binding energy by using the equation deltaG obsd = -RT ln KD
Format: ADME

| Structure (SMILES) | Binding energy |
| --- | --- |
| CCCCC[C@H](O)/C=C/[C@H]1[C@H](O)CC(=O)[C@@H]1CCCCCCC(=O)O [ALPROSTADIL] | 11.2 kcal/mol |
| O=C1CCC(c2ccccc2)(C2CCN(Cc3ccccc3)CC2)C(=O)N1 (centres undefined) [BENZETIMIDE] | 12 kcal/mol |
| COc1cc(CCN)cc(OC)c1OC [MESCALINE] | 7.1 kcal/mol |
| C[C@]12CCC(=O)C=C1CC[C@@H]1[C@@H]2[C@@H](O)C[C@]2(C=O)[C@@H](C(=O)CO)CC[C@@H]12 [ALDOSTERONE] | 12.7 kcal/mol |
| CC(=O)OCC[N+](C)(C)C [ACETYLCHOLINE] | 11.1 kcal/mol |
| Clc1ccc(C(c2ccc(Cl)cc2)C(Cl)(Cl)Cl)cc1 [CHLOROPHENOTHANE] | 7.6 kcal/mol |
| O=C1CCCN1CC#CCN1CCCC1 [OXOTREMORINE] | 11.7 kcal/mol |
| O=P(O)(O)C#CCCO | 3.4 kcal/mol |
| C[N+](C)(C)CCOC(N)=O.[Cl-] [CARBACHOL] | 10.7 kcal/mol |
| CC(=O)[C@H]1CC[C@H]2[C@@H]3CCC4=CC(=O)CC[C@]4(C)[C@H]3CC[C@]12C [PROGESTERONE] | 10.5 kcal/mol |
| Nc1ccn([C@@H]2O[C@H](COP(=O)(O)O)[C@@H](O)[C@H]2O)c(=O)n1 | 5.9 kcal/mol |
| CC(N)Cc1ccccc1 (centres undefined) [AMPHETAMINE] | 6.8 kcal/mol |
| C[C@H]1[C@H]2C(=O)c3ccc(O)cc3[C@]1(C)CCN2CC1CC1 [KETAZOCINE] | 11.4 kcal/mol |
| CC(=O)O[C@]1(C(C)=O)CC[C@H]2[C@@H]3C[C@H](C)C4=CC(=O)CC[C@]4(C)[C@H]3CC[C@@]21C [MEDROXYPROGESTERONE ACETATE] | 10.2 kcal/mol |
| C=C(C)[C@@H]1[C@H]2OC(=O)[C@@H]1[C@]1(O)[C@H]3O[C@H]3[C@]3(CO3)[C@]1(C)[C@@H]2O | 8.8 kcal/mol |
| CC/C(=C(\c1ccccc1)c1ccc(OCCN(C)C)cc1)c1ccccc1 [TAMOXIFEN] | 12.3 kcal/mol |
| CCCCC[C@H](O)/C=C/[C@H]1[C@H](O)CC(=O)[C@@H]1C/C=C\CCCC(=O)O [DINOPROSTONE] | 11.5 kcal/mol |

| Structure (SMILES) | Binding energy |
| --- | --- |
| CC[C@H](C)[C@H](N)C(=O)O [ISOLEUCINE] | 7.1 kcal/mol |
| O=C(O)Cc1ccccc1Oc1ccc(Cl)c(O)c1Cl | 8.7 kcal/mol |
| O=C(NC1CCN(CCc2c[nH]c3ccccc23)CC1)c1ccccc1 [INDORAMIN] | 11.5 kcal/mol |
| Cc1ccc(N(CC2=NCCN2)c2cccc(O)c2)cc1 [PHENTOLAMINE] | 11.9 kcal/mol |
| CN(C)CCCN1c2ccccc2Sc2ccc(Cl)cc21 [CHLORPROMAZINE] | 12.3 kcal/mol |
| O=c1[nH]c(=O)c2c[nH]nc2[nH]1 [OXYPURINOL] | 12.6 kcal/mol |
| COc1cc(Cc2cnc(N)nc2N)cc(OC)c1OC [TRIMETHOPRIM] | 11.5 kcal/mol |
| O=c1[nH]c2ccccc2n1CCCN1CCC(n2c(=O)[nH]c3cc(Cl)ccc32)CC1 [DOMPERIDONE] | 13.8 kcal/mol |
| CCC(C)CN (centres undefined) | 2.8 kcal/mol |
| Oc1ncnc2[nH]ncc12 [ALLOPURINOL] | 12.5 kcal/mol |
| CC(C(=O)O)c1ccc(-c2ccccc2)c(F)c1 (centres undefined) [FLURBIPROFEN] | 9.1 kcal/mol |
| C(=C\c1ccccc1)/CN1CCN(C(c2ccccc2)c2ccccc2)CC1 [CINNARIZINE] | 8.4 kcal/mol |
| CCCCC[C@H](O)/C=C/[C@@H]1[C@@H](C/C=C\CCCC(=O)O)[C@@H](O)C[C@H]1O [DINOPROST] | 9.2 kcal/mol |
| CC12CCC(CC1=O)C2(C)C (centres undefined) [CAMPHOR] | 11.4 kcal/mol |
| CN1CCC(=C2c3ccccc3C=Cc3ccccc32)CC1 [CYPROHEPTADINE] | 12.8 kcal/mol |
| N[C@@H](Cc1cc(I)c(Oc2cc(I)c(O)c(I)c2)c(I)c1)C(=O)O [LEVOTHYROXINE] | 10.3 kcal/mol |
| O=C1NCN(c2ccccc2)C12CCN(CCCC(c1ccc(F)cc1)c1ccc(F)cc1)CC2 [FLUSPIRILENE] | 11.6 kcal/mol |
